Laboratory results taken from patent US20230414626A1, “INDUCTION OF FERROPTOSIS FOR CANCER THERAPY” (Memorial Sloan Kettering Cancer Center, priority 2020, published 2023).

Experiments:
[1] = test system: MDA-MB-453 cells; assay: Cell death quantification (Sytox Green), RSL3-induced ferroptosis; type: cell-based, human; conditions: RSL3 1 μM, GDC-0941 2 μM, MK-2206 2 μM, Torin 1 μM, CCI-779 0.5 μM, Fatostatin A 5 μM, CAY10566 5 μM
Description: (§1) FIG. 1 A-D. Oncogenic activation of the PI3K-AKT-mTOR signaling pathway confers resistance to ferroptosis. (A) Genetic background of the analyzed cancer cell lines and their sensitivity to RSL3. (B) Cells were seeded in 96-well plate, 2×10^4 cells per well and incubated overnight. Cell death was induced by 24-h treatment of RSL3 with indicated concentrations. Cell death were measured by Sytox Green staining, as detailed in Methods. (C) Indicated protein components in the PI3K-AKT pathway were detected by western blot in indicated cell types. (D) Cells were treated with or without PI3K inhibitor GDC-0941 (2 μM), AKT inhibitor MK-2206 (2 μM), RSL3 (1 μM), or ferroptosis inhibitor Ferrostatin-1 (Fer-1, 1 μM) as indicated for 12 h (BT474) or 24 h (MDA-MB-453). Cell death was measured. Indicators for P values (same in all other figures): ****, P≤0.0001; *** P≤0.001; **, P≤0.01; *, P≤0.05; ns, P>0.05
(§2) FIG. 2 A-E. mTORC1, instead of mTORC2, suppresses ferroptosis. (A) MDA-MB-453 and BT474 were treated with CCI-779 (0.5 μM), RSL3 (1 μM for MDA-MB-453 cells and 0.5 μM for BT474 cells), and Fer-1 (1 μM) as indicated. (B) Cells were seeded in 6-well plate, 4×10^5 cells per well and incubated overnight. MDA-MB-453 and BT474 cells were treated as indicated. CCI-779, 0.5 μM; RSL3, 1 μM for MDA-MB-453 cells and 0.5 μM for BT474 cells; Fer-1, 1 μM. Cells were stained with 5 μM C1I-BODIPY followed by flow cytometry after 8 h-treatment. (C) 3D spheroids were treated as indicated. CCI-779, 0.5 μM; RSL3, 0.5 μM; Fer-1, 1 μM. Top panel, dead cells were stained by SYTOX Green (scale bar, 100 μm). Bottom panel, cell viability was assayed by measuring cellular ATP levels. (D) Cells expressing shRNAs targeting RPTOR or RICTOR were treated as indicated. CCI-779, 0.5 μM; RSL3, 0.5 μM; Fer-1, 1 μM. (E) Lipid peroxidation of samples as in panel D were measured.
(§3) FIG. 5 A-H. SREBP1 protects cells from ferroptosis through SCD1 activity. (A) The expression of SREBP1, and its targets SCD1, FASN, and ACACA, in control and SREBF1-sgRNA cells were detected by western blot. (B) The mRNA level of SREPF1 and its targets gene SCD were measured by RT-PCR. (C) Cells were pretreated with or without 5 μM CAY10566 overnight, and then subjected to the indicated treatments. RSL3, 0.5 μM for BT474 cells and 1 μM for MDA-MB-453 cells; CAY10566, 5 μM; Fer-1, 1 μM. (D) Cells expressing control or SCD-sgRNA were treated as indicated. RSL3, 1 μM for MDA-MB-453 cells and 0.5 μM for BT474 cells; Fer-1, 1 μM. (E) 3D spheroids derived from BT474 cells harboring control or SCD-sgRNA were treated as indicated. RSL3, 0.5 μM; CCI-779, 0.5 μM; Fer-1, 1 μM. Left, cell death staining (scale bar, 100 m). Right, cell viability. (F) SCD1 was overexpressed in BT474 cells and determined by western blot. Cells were treated as indicated. RSL3, 0.5 μM; CCI-779, 0.5 μM. (G) 3D spheroids derived from BT474 cells with control or SCD1 overexpression were treated as indicated. RSL3, 0.5 μM; CCI-779, 0.5 μM; Fer-1, 1 μM. Left, cell death staining (scale bar, 100 m). Right, cell viability. (H) Cells were treated as indicated. RSL3, 0.5 μM for BT474 and 1 μM for MDA-MB-453; CCI-779, 0.5 μM; Oleic acid (OA), 0.5 mM; stearic acid (SA), 0.5 mM.
(§4) FIG. 7 A-J. PI3K-AKT-mTOR signaling regulates ferroptosis sensitivity. (A) Cells were treated as indicated. GDC-0941, 2 μM; MK-2206, 2 μM; RSL3, 1 μM; Fer-1, 1 μM. Lipid peroxidation was measured. (B) Cells were treated with indicated conditions. Torin, 1 μM; RSL3, 1 μM for MDA-MB-453 cells and 0.5 μM for BT474 cells; Fer-1, 1 μM. Cell death was measured. (C) Cells were treated with indicated conditions. RSL3, 10 μM for MCF cells and PC-3 cells, 5 μM for T47D cells, 1 μM for HepG2 cells; Torin, 1 μM; CCI-779, 0.5 μM. (D) Cells were treated as indicated. CCI-779, 0.5 μM; Torin, 1 μM; Fer-1, 1 μM. Cell death was staining by propidium iodide (PI) (red) or Sytox Green (green) (scale bar, 100 μm). (E-F) 3D spheroids for MDA-MB-453 cells and MCF7 cells were treated as indicated. […]

[2] = test system: BT474 cells; assay: as above; type: cell-based, human; conditions: RSL3 0.5-1 μM, GDC-0941 2 μM, MK-2206 2 μM, Torin 1 μM, CCI-779 0.5 μM, Fatostatin A 5 μM, CAY10566 5 μM
Description: as §1, §2, §3, §4

Row | Structure (SMILES) | sensitization to ferroptosis (cell death) induced by RSL3 [1] | sensitization to ferroptosis (cell death) induced by RSL3 [2]
1 | CS(=O)(=O)N1CCN(Cc2cc3nc(-c4cccc5[nH]ncc45)nc(N4CCOCC4)c3s2)CC1 [GDC-0941] | sensitized | sensitized
2 | NC1(c2ccc(-c3nc4ccn5c(=O)[nH]nc5c4cc3-c3ccccc3)cc2)CCC1 [MK-2206] | sensitized | sensitized
3 | CO[C@H]1C[C@@H]2CC[C@@H](C)[C@@](O)(O2)C(=O)C(=O)N2CCCC[C@H]2C(=O)O[C@H]([C@H](C)C[C@@H]2CC[C@@H](OC(=O)C(C)(CO)CO)[C@H](OC)C2)CC(=O)[C@H](C)/C=C(\C)[C@@H](O)[C@@H](OC)C(=O)[C@H](C)C[C@H](C)/C=C/C=C/C=C/1C [CCI-779, Temsirolimus] | sensitize | sensitize
4 | Cc1nnc(-c2ccc(N3CCC(Oc4cc(F)ccc4Cl)CC3)nn2)o1 [CAY10566] | sensitized the effect of RSL3 | sensitized the effect of RSL3
5 | CCC(=O)N1CCN(c2ccc(-n3c(=O)ccc4cnc5ccc(-c6cnc7ccccc7c6)cc5c43)cc2C(F)(F)F)CC1 [Torin] | sensitized | sensitized
6 | CCCc1cc(-c2nc(-c3ccc(C)cc3)cs2)ccn1 [Fatostatin A] | sensitized ferroptosis | sensitized ferroptosis
